Laboratory results reported in ChEMBL document CHEMBL1201862, “PubChem BioAssay data set” (2004).
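Tested at 5 concentrations; 48 h exposure; 96-well plates; endpoints linearly interpolated, else capped at highest concentration. Here, GI50 denotes the concentration required for 50% inhibition of growth.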 Activity calls are given as the source filed them. Rule as the data show it: active = GI50 up to about 1.1 µM and inactive = higher.

Key:
Test in all cases: NCI-60 cell line screen, 48 h
A549 = system: A549
786-0 = system: 786-0
SK-MEL-2 = system: SK-MEL-2
A498 = system: A498
MDA-MB-231 = system: MDA-MB-231
MOLT-4 = system: MOLT-4
SK-OV-3 = system: SK-OV-3
K562 = system: K562
HCC 2998 = system: HCC 2998
RPMI-8226 = system: RPMI-8226
NCI-H522 = system: NCI-H522
HCT-15 = system: HCT-15
HCT-116 = system: HCT-116
M14 = system: M14
IGROV-1 = system: IGROV-1
Malme-3M = system: Malme-3M
SK-MEL-28 = system: SK-MEL-28
CCRF-CEM = system: CCRF-CEM
MDA-N = system: MDA-N
U-251 = system: U-251

Compound: CO[C@]12CC(=O)C3(C(C[C@H]4CC5CCC6=CC(=O)CC[C@]6(OC(C)=O)C5C[C@@]43C)C1)C1C[C@H]3[C@@H]4CCC5=CC(=O)CC[C@]5(OC(C)=O)[C@H]4CC[C@]3(C)C12 (stereo not given in full)
- GI50 (A549): > 100 µM (inactive)
- GI50 (786-0): > 100 µM (inactive)
- GI50 (SK-MEL-2): > 100 µM (inactive)
- GI50 (A498): > 100 µM (inactive)
- GI50 (MDA-MB-231): 27.5 µM (inactive)
- GI50 (MOLT-4): > 100 µM (inactive)
- GI50 (SK-OV-3): > 100 µM (inactive)
- GI50 (K562): > 100 µM (inactive)
- GI50 (HCC 2998): > 100 µM (inactive)
- GI50 (RPMI-8226): > 100 µM (inactive)
- GI50 (NCI-H522): > 100 µM (inactive)
- GI50 (HCT-15): > 100 µM
- GI50 (HCT-116): > 100 µM (inactive)
- GI50 (M14): > 100 µM (inactive)
- GI50 (IGROV-1): > 100 µM (inactive)
- GI50 (Malme-3M): > 100 µM (inactive)
- GI50 (SK-MEL-28): > 100 µM (inactive)
- GI50 (CCRF-CEM): > 100 µM (inactive)
- GI50 (MDA-N): 58.2 µM (inactive)
- GI50 (U-251): > 100 µM (inactive)
